Article PMC4830886, “Extended evaluation on the ES-D3 cell differentiation assay combined with the BeWo transport model, to predict relative developmental toxicity of triazole compounds” (Archives of Toxicology, 2015)
Marks after values point to notes of the source that are not given here.

How the values were obtained:
[1] = WST-1 cytotoxicity assay with ES-D3 cells; type: cell-based; settings: mouse, ES-D3 embryonic stem cells, WST-1, 5-day exposure, read-out: decline in cell viability
Description: The murine ES-D3 cell line was purchased from ATCC (Wesel, Germany). The cells were maintained in polystyrene cell culture flasks (Corning, The Netherlands) in Dulbecco’s modified Eagle’s medium (DMEM, Invitrogen, Breda, The Netherlands), supplemented with 20 % heat-inactivated fetal calf serum (Lonza, BioWhittaker, Verviers, Belgium), 50 U/ml penicillin with 50 μg/ml streptomycin (Invitrogen), 2 mM L-glutamine (Invitrogen), 0.1 mM β-mercaptoethanol (Sigma-Aldrich) and 1 % (v/v) nonessential amino acids (Invitrogen), at 37 °C and 5 % CO2 in a humidified atmosphere. Cells were kept undifferentiated with 1000 U/ml murine leukemia inhibiting factor (LIF) (Sigma-Aldrich) and subcultured every 2–3 days using nonenzymatic cell dissociation solution (Sigma-Aldrich) to detach the cells.
To determine cytotoxicity of the compounds, a WST-1 assay was performed. This assay measures the influence of test compounds on the formation of the water-soluble formazan reaction product from WST-1 by mitochondrial succinate-tetrazolium reductase enzymes. The cytotoxicity of a test compound inversely correlates with the absorbance of the produced formazan quantified spectrophotometrically as described previously (Reitsma et al. [2013]). ES-D3 cells were exposed to test compounds for the duration of 1 or 5 days as described before (Li et al. [2015]). Briefly, cells were seeded in 96-well plates (Greiner bio-one) at concentrations of 20 × 10^4 cells/ml (1-day exposure) or 1 × 10^4 cells/ml (5-day exposure) in 100 μl culture medium in the absence of LIF and incubated for 1 day to allow cell adherence. Then, the cells were exposed to the test compounds at concentrations up to 60 μM (final solvent concentration 0.2 % DMSO) and subsequently cultured for 1 or 5 days at 37 °C and 5 % CO2 in a humidified atmosphere. Solvent DMSO (0.2 %) was used as a negative control and 1 % Triton X-100 served as a positive control in all cytotoxicity assays. After incubation of 1 or 5 days, 20 μl WST-1 reagent (Roche, Woerden, The Netherlands) was added to each well and the plates were incubated for another 3 h. Then, absorbance was measured at 450 nm using a SpectraMax M2 (Molecular Devices, Sunnyvale, USA). Three wells were used per treatment in each independent experiment. Three independent experiments were done for each compound. The cell viability was expressed as % of the solvent control, with the solvent control set at 100 % viability. Reproducible results were obtained from the treatments of negative and positive controls in all of the cytotoxicity assays.

time-mated Wistar rats = assay: in vivo maternal and prenatal developmental toxicity screening study (OECD 414 principles); settings: rat
From the text: The major differences to a full guideline study were the smaller sample size, using 9–10 instead of at least 16 pregnant rats, per test substance.
The animals were paired by the breeder [time-mated Wistar rats, Crl: WI (Han), Charles River Laboratories, Sulzfeld, Germany], between 10 and 12 weeks of age, and supplied on the day of evidence of mating; this day is referred to as gestational day (GD) 0 and following day as GD 1. […] This strain has been extensively used, both in our laboratory and elsewhere, and is sensitive to reproductive toxicants. All rats were housed individually in Makrolon cages with Lignocel PS 14 fibers dust-free bedding and wooden enrichment blocks. The cages were kept in climate-controlled rooms at 20–24 °C with a relative humidity of 30–70 %, an air exchange rate of 15 times per hour and a 12-h light/dark cycle. Diet (Ground Kliba SA, Switzerland) and tap water were provided ad libitum. In-life data (mortality, clinical signs, body weights and food consumption) were recorded throughout the study, but presented only if relevant for the interpretation of prenatal developmental effects.
The test compounds administered by gavage were administrated between 100 and 600 mg/kg bw/day using the vehicle 1 % carboxymethylcellulose in deionized water. The standard dose volume was 10 ml/kg bw.
On GD 20, the surviving dams were anesthetized with isoflurane, killed by decapitation and examined macroscopically. For each dam, the uterus was opened and the number, distribution and classification of implantation sites (live fetus, early and late fetal resorptions, and dead fetus) were determined. The fetuses were removed, sexed and fetal body weight determined. Gross pathological examination of the fetuses, including assessment of abnormalities of the fetal membranes, placentas, amniotic fluid and umbilical cord, was performed. Subsequently, all fetuses were killed by injection of pentobarbital. […] The other half of the fetuses of each dam was fixed in Harrison’s fluid. […] A permanent structural change that is likely to affect adversely the survival or health was assessed as malformation. A change that also occurs in the fetuses of control animals and/or is unlikely to affect adversely the survival or health was assessed as variation. This includes delays in growth or morphogenesis that have otherwise followed a normal pattern of development.
Maternal toxicity was classified as slight if body weight and/or carcass weight reduction is not above 10 %, moderate if body weight and/or carcass weight reduction is between 10 and 20 % and severe if body weight and/or carcass weight reduction is above 20 %. All the in vivo data are expressed as the affected fetuses/litter.

[2] = female, Wistar Crl:WI(Han), in vivo
[3] = gavage GD 6–19, 100 mg/kg, affected fetuses/litter

| Compound | cytotoxicity at 5 days, 60 µM [1] | Ranking (in vivo prenatal developmental toxicity potency) (time-mated Wistar rats; [2]) | Early resorption (%) (time-mated Wistar rats; gavage GD 6–19, 200 mg/kg) | Fetal weight (%) (time-mated Wistar rats; gavage GD 6–19, 200 mg/kg) | Late resorption (%) (time-mated Wistar rats; gavage GD 6–19, 200 mg/kg) | Maternal toxicity classification (time-mated Wistar rats; gavage GD 6–19, 200 mg/kg) | Maternal toxicity findings (time-mated Wistar rats; gavage GD 6–19, 200 mg/kg) | Placenta weight (%) (time-mated Wistar rats; gavage GD 6–19, 200 mg/kg) | Postimplantation loss (%) (time-mated Wistar rats; gavage GD 6–19, 200 mg/kg) | Total number of fetuses (time-mated Wistar rats; gavage GD 6–19, 200 mg/kg) | Early resorption (%) (time-mated Wistar rats; gavage GD 6–19, 600 mg/kg) | Late resorption (%) (time-mated Wistar rats; gavage GD 6–19, 600 mg/kg) | Postimplantation loss (%) (time-mated Wistar rats; gavage GD 6–19, 600 mg/kg) | Total number of fetuses (time-mated Wistar rats; gavage GD 6–19, 600 mg/kg) | other results |
| --- | --- | --- | --- | --- | --- | --- | --- | --- | --- | --- | --- | --- | --- | --- | --- |
| OC(c1cccnc1)c1c(-c2ccc(F)cc2F)csc1-c1ccc(F)cc1F (stereo not drawn) [compound 0595, [2,4-Bis-(2,4-difluoro-phenyl)-thiophen-3-yl]-pyridin-3-yl-methanol] | 20% | 6 | 21.9% | 102% | 2.0% | No | NAD | 117% | 24% | 74 | 100% | 0.0% | 100.0** % | 0 | Malformation, Total (skeletal) (time-mated Wistar rats; gavage GD 6–19, 200 mg/kg, affected fetuses/litter): Total 0%; Maternal body weight (BW) (time-mated Wistar rats; gavage GD 6–19, 600 mg/kg): 74%; Maternal carcass weight (CW) (time-mated Wistar rats; gavage GD 6–19, 600 mg/kg): 89%; Maternal mortality (time-mated Wistar rats; gavage GD 6–19, 600 mg/kg): 30%; teratogenic potential (time-mated Wistar rats; overall assessment of the in vivo study): no teratogenic potential |
| OC(c1cccnc1)c1c(-c2ccc(F)cc2F)noc1-c1ccc(Cl)cc1F (stereo not drawn) [compound 0594, [5-(4-Chloro-2-fluoro-phenyl)-3-(2,4-difluoro-phenyl)-isoxazol-4-yl]-pyridin-3-yl-methanol] | 30% | 4 | 5.9% | 107% | 1.9% | No | No | 110% | 7.8% | 99 | 14.1% | 0.8% | 14.9% | 98 | Fetal weight (%) (time-mated Wistar rats; gavage GD 6–19, 600 mg/kg): 101%; Placenta weight (%) (time-mated Wistar rats; gavage GD 6–19, 600 mg/kg): 116%; Bent femur (time-mated Wistar rats; gavage GD 6–19, 600 mg/kg, affected fetuses/litter): Bent femur 12.5% |
| CC(c1nc(-c2ccc(C#N)cc2)cs1)C(O)(Cn1ccnc1)c1ccc(F)cc1 (stereo not drawn) [compound 0599, 4-[2-[2-(4-Fluorophenyl)-2-hydroxy-3-imidazol-1-yl-1-methyl-propyl]thiazol-4-yl]benzonitrile] | 80% |  |  |  |  |  |  |  |  |  |  |  |  |  | Early resorption (%) (time-mated Wistar rats; gavage GD 6–19, 100 mg/kg): 7.8%; Fetal weight (%) (time-mated Wistar rats; gavage GD 6–19, 100 mg/kg): 102%; Late resorption (%) (time-mated Wistar rats; gavage GD 6–19, 100 mg/kg): 0.8%; Maternal carcass weight (CW) (time-mated Wistar rats; gavage GD 6–19, 100 mg/kg): 91%; Placenta weight (%) (time-mated Wistar rats; gavage GD 6–19, 100 mg/kg): 116%; Postimplantation loss (%) (time-mated Wistar rats; gavage GD 6–19, 100 mg/kg): 8.6%; Total number of fetuses (time-mated Wistar rats; gavage GD 6–19, 100 mg/kg): 99; Maternal body weight change BWC (6–8) (time-mated Wistar rats; gavage GD 6–19, 100 mg/kg, GD 6–8): 66%; Maternal food consumption FC (6–20) (time-mated Wistar rats; gavage GD 6–19, 100 mg/kg, GD 6–20): > 74%; Malformation, CP (cleft palate) (time-mated Wistar rats; [3]): 10%; Malformation, Total (skeletal) (time-mated Wistar rats; [3]): 100%; Misshapen basisphenoid (time-mated Wistar rats; [3]): 74.2%; Misshapen temporal bone (time-mated Wistar rats; [3]): 85.4%; Small tuberositas deltoidea (time-mated Wistar rats; [3]): 66.3%; Maternal mortality (time-mated Wistar rats; gavage GD 6–19, 250 mg/kg): Mortality 100 %**; Total number of fetuses (time-mated Wistar rats; gavage GD 6–19, 250 mg/kg): 0; Ranking (in vivo prenatal developmental toxicity potency) (time-mated Wistar rats; 1 = highest potential, 6 = lowest, among the six test compounds): 1 |
